Source: US20110059043A1, “CHEMICAL COMPOUNDS” (priority 2009, published 2011)

Tests used:
[1] = target: T1, Recombinant HCV polymerase (BK strain) (Hepatitis C virus genotype 1b, UniProt P26663); assay: HCV polymerase enzyme assay (radiometric [33P]-UTP incorporation); format: biochemical, HCV 1b
T1 construct: Recombinant HCV polymerase (BK strain) was expressed and purified from E. coli with a 21 amino acid C-terminal deletion; His6; made in house; host or cells: E. coli
Description: Compounds were tested for inhibition of HCV polymerase using a radiometric [^33P]-UTP incorporation assay and a biotinylated U13:PolyA primer:template RNA substrate.
Recombinant HCV polymerase (BK strain) was expressed and purified from E. coli with a 21 amino acid C-terminal deletion and a His6-tag. The general assay buffer consisted of 20 mM Tris (pH 7.5), 25 mM KCl, 5 mM MgCl2, 3 mM DTT, 0.5 mg/ml BSA, 0.01% Tween20. The standard reaction, in 96 well plates, contained 10 μl of diluted compound, 50 μl of substrate and 40 μl of enzyme. Compounds, supplied as 10 mM stocks in DMSO, were diluted initially in neat DMSO, and subsequently buffer was added to give a DMSO concentration of 30%; 10 μl of this was added to the assay plate to give a final concentration in the 100 μl assay of 3% DMSO. The biotinylated U13:PolyA RNA substrate was pre-annealed with 40 μM 5′-biotinylated U13 (Dharmacon) and 213 μg/ml PolyA (Amersham Biosciences) in water incubated at 70° C. for 5 minutes before being cooled on ice. Substrate (50 μl) was added in buffer to give a final concentration in the 100 μl assay of 125 nM biotinylated U13:0.63 μg/ml PolyA and 200 nM UTP with 0.4 μCi [^33P]-UTP per well (Perkin Elmer). The reaction was initiated by the addition of 40 μl of enzyme in buffer to give 100 nM final concentration. The reaction was incubated at 25° C. for 100 minutes and then stopped by addition of 100 μl of 100 mM EDTA. The samples were then transferred to 96 well Streptavidin-coated FlashPlates (Perkin Elmer) and incubated at room temperature for ˜1 hour to allow binding to occur. The plates were then washed three times with phosphate-buffered saline containing 0.05% Tween20 in an automated plate washer to remove unincorporated [^33P]-UTP, and then counted in a
Each plate included a set of positive controls (no compound, maximum signal) and negative controls (no enzyme, minimum signal) and in each run at least one reference is compound was included to validate the assay. The IC50, concentration required to inhibit the enzyme activity by 50%, was calculated using an 8-point IC50 curve and fitted using the program XLfit (IDBS).

[2] = test system: HCV replicon cells Huh 9B; assay: HCV replicon assay (luciferase); format: cell-based; conditions: Hepatitis C virus, reduction of replicon level by 50% vs untreated cell control, 72 h
Description: (§1) HCV replicon cells Huh 9B (ReBlikon), containing the firefly luciferase—ubiquitin—neomycin phosphotransferase fusion protein and EMCV-IRES driven HCV polyprotein with cell culture adaptive mutations.
(§2) Cells were cultured at 37° C. in a 5% CO2 environment and split twice a week on seeding at 2×10^6 cells/flask on day 1 and 1×10^6 3 days later. G418 at 0.5 mg/ml was added to the culture medium but not the assay medium. The culture medium consisted of DMEM with […] glucose and glutamax (Gibco 61965-026) supplemented with 1×non-essential amino acids (Invitrogen 11140-035), penicillin (100 IU/ml)/streptomycin (100 μg/ml) (Invitrogen 15140-122), FCS (10%, 50 ml) and […] (Invitrogen 10131-027) & 10% Australian foetal calf serum (Invitrogen 10099-141).
(§3) A flask of cells was trypsinised and a cell count carried out. Cells were diluted to 100,000 cells/ml and 100 μl of this used to seed one opaque white 96-well plate (for the replicon assay) and one flat-bottomed clear plate (for the tox assay) for every five compounds to be tested for IC50. Wells G12 and H12 were left empty in the clear plate as the blank. Plates were then incubated at 37° C. in a 5% CO2 environment for 24 h.
(§4) On the following day compound dilutions are made up in medium at twice their desired final concentration in a clear round bottomed plate. All dilutions have a final DMSO concentration of 1%.
(§5) Once the dilution plate had been made up, controls and compounds were transferred to the assay plates (containing the cells) at 100 μl/well in duplicate wells. Exception: no compound was added to wells A1 and A2 of either plate and 100 μl of 1% DMSO was added to these instead. Plates were then incubated at 37° C. with 5% CO2 for 72 h.
At the end of the incubation time, the cells in the white plate were harvested by washing in PBS (100 μL per well) and gently tapping dry before addition of […] of lysis buffer (25 mM tris-phosphate, 8 mM MgCl2, 1 mM DTT, 1% Triton X-100, 15% glycerol. pH to 7.8 using KH2PO4 prior to triton and glycerol addition. Substrate was prepared: 23.5 mM beetle luciferin (Promega E1603), 26 mM ATP (Sigma O-2060) in […] Tris buffer pH 7.8 aliquoted and stored at −80° C. was thawed and diluted 1:50 in luciferase assay buffer (20 mM Tricine (Sigma T-0377), 1.07 mM magnesium carbonate hydroxide (Sigma M-5671), 0.1 mM EDTA (Sigma E-5134), 2.67 mM MgSO4(BDH 101514Y), 33.3 mM dithiothreitol (Sigma 150460) pH 7.8).
The M injector of the microplate luminometer (Lmax, Molecular Devices) was primed with 5×300 μl injections of the diluted substrate. After 5-60 min incubation in lysis buffer at room temperature, a plate was inserted into the luminometer and 100 μl luciferase assay reagent was added by the injector on the luminometer. The signal was measured using a 1 second delay followed by a 4 second measurement programme. The IC50, the concentration of the drug required for reducing the replicon level by 50% in relation to the untreated cell control value, can be calculated from the plot of the percentage reduction of the luciferase activity vs. drug concentration.

[3] = test system: HCV replicon cells Huh 9B; format: cell-based; conditions: concentration reducing total cell area by 50% relative to DMSO controls; 72 h
Description: as §1, §2, §3, §4, §5
The clear plate was stained with 100 μl 0.5% methylene blue in 50% ethanol at room temperature for lh, followed by solvation of the absorbed methylene blue in 100 μl per well of 1% lauroylsarcosine. Absorbance of the plate was measured on a microplate spectrophotometer (Molecular Devices) and the absorbance for each concentration of compound expressed as a proportion of the relative DMSO control. The TD50, the concentration of drug required to reduce the total cell area by 50% relative to the DMSO controls, can be calculated by plotting the absorbance at 620 nm minus background against drug concentration.

T1 sequence (P26663 2420-2989): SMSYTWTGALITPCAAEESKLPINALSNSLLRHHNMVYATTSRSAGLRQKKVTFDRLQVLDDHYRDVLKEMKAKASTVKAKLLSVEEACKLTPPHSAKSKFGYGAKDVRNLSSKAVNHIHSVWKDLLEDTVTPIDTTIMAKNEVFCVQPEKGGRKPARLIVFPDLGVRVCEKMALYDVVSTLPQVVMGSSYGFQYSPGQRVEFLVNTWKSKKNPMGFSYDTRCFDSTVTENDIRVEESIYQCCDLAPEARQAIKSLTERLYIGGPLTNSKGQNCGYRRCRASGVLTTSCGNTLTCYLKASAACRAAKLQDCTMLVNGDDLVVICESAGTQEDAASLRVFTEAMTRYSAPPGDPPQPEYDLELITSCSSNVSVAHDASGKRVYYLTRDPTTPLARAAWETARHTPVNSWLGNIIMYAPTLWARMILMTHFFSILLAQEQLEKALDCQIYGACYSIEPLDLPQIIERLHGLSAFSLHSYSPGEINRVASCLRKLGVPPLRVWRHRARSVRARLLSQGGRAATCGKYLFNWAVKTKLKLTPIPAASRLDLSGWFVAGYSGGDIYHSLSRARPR

| SMILES | IC50 [1] [nM] | IC50 [2] [nM] | Replicon Assay Value TD50 [3] [µM] |
| --- | --- | --- | --- |
| COCCOc1ccc(F)cc1C(=O)NC1N=C(c2c(Cl)cc(Cl)cc2Cl)c2ccccc2NC1=O (stereo not drawn) [Example 16, 5-Fluoro-2-(2-methoxyethoxy)-N-(2-oxo-5-(2,4,6-trichlorophenyl)-2,3-dihydro-1H-benzo[e][1,4]diazepin-3-yl)benzamide] | 119 | 38.7 | 22.094 |
| COCCOc1ccc(C)cc1C(=O)NC1N=C(c2c(Cl)cc(Cl)cc2Cl)c2ccccc2NC1=O (stereo not drawn) [Example 17, 2-(2-Methoxyethoxy)-5-methyl-N-(2-oxo-5-(2,4,6-trichlorophenyl)-2,3-dihydro-1H-benzo[e][1,4]diazepin-3-yl)benzamide] | 235 | 78.8 | >25 |
| COCCOc1ccc(C(C)=O)cc1C(=O)NC1N=C(c2c(Cl)cc(Cl)cc2Cl)c2ccccc2NC1=O (stereo not drawn) [Example 18, 5-Acetyl-2-(2-methoxyethoxy)-N-(2-oxo-5-(2,4,6-trichlorophenyl)-2,3-dihydro-1H-benzo[e][1,4]diazepin-3-yl)benzamide] | 385 | 876 | 15.802 |
| COCCOc1ccc(OC(F)(F)F)cc1C(=O)NC1N=C(c2c(Cl)cc(Cl)cc2Cl)c2ccccc2NC1=O (stereo not drawn) [Example 19, 2-(2-Methoxyethoxy)-N-(2-oxo-5-(2,4,6-trichlorophenyl)-2,3-dihydro-1H-benzo[e][1,4]diazepin-3-yl)-5-(trifluoromethoxy)benzamide] | 2150 | 645 | >25 |
| COCCOc1ccc(Br)cc1C(=O)NC1N=C(c2c(Cl)cc(Cl)cc2Cl)c2ccccc2NC1=O (stereo not drawn) [Example 20, 5-Bromo-2-(2-methoxyethoxy)-N-(2-oxo-5-(2,4,6-trichlorophenyl)-2,3-dihydro-1H-benzo[e][1,4]diazepin-3-yl)benzamide] | 535 | 195 | >25 |
| CC(=O)NCCOc1ccc(Cl)cc1C(=O)NC1N=C(c2c(Cl)cc(Cl)cc2Cl)c2ccccc2NC1=O (stereo not drawn) [Example 21, 2-(2-Acetamidoethoxy)-5-chloro-N-(2-oxo-5-(2,4,6-trichlorophenyl)-2,3-dihydro-1H-benzo[e][1,4]diazepin-3-yl)benzamide] | 98.7 | 824 | 13.188 |
| CCC(=O)NCCOc1ccc(Cl)cc1C(=O)NC1N=C(c2c(Cl)cc(Cl)cc2Cl)c2ccccc2NC1=O (stereo not drawn) [Example 22, 5-Chloro-N-(2-oxo-5-(2,4,6-trichlorophenyl)-2,3-dihydro-1H-benzo[e][1,4]diazepin-3-yl)-2-(2-propionamidoethoxy)benzamide] | 197 | 953 | 12.304 |
| CS(=O)(=O)NCCOc1ccc(Cl)cc1C(=O)NC1N=C(c2c(Cl)cc(Cl)cc2Cl)c2ccccc2NC1=O (stereo not drawn) [Example 23, 5-Chloro-2-(2-(methylsulfonamido)ethoxy)-N-(2-oxo-5-(2,4,6-trichlorophenyl)-2,3-dihydro-1H-benzo[e][1,4]diazepin-3-yl)benzamide] | 952 | 2910 | 12.744 |
| CCNC(=O)NCCOc1ccc(Cl)cc1C(=O)NC1N=C(c2c(Cl)cc(Cl)cc2Cl)c2ccccc2NC1=O (stereo not drawn) [Example 24, 5-Chloro-2-(2-(3-ethylureido)ethoxy)-N-(2-oxo-5-(2,4,6-trichlorophenyl)-2,3-dihydro-1H-benzo[e][1,4]diazepin-3-yl)benzamide] | 281 | 1280 | 11.815 |
| CC(=O)NCCCOc1ccc(Cl)cc1C(=O)NC1N=C(c2c(Cl)cc(Cl)cc2Cl)c2ccccc2NC1=O (stereo not drawn) [Example 25, 2-(3-Acetamidopropoxy)-5-chloro-N-(2-oxo-5-(2,4,6-trichlorophenyl)-2,3-dihydro-1H-benzo[e][1,4]diazepin-3-yl)benzamide] | 459 | 575 | 12.774 |
| CCC(=O)NCCCOc1ccc(Cl)cc1C(=O)NC1N=C(c2c(Cl)cc(Cl)cc2Cl)c2ccccc2NC1=O (stereo not drawn) [Example 26, 5-Chloro-N-(2-oxo-5-(2,4,6-trichlorophenyl)-2,3-dihydro-1H-benzo[e][1,4]diazepin-3-yl)-2-(3-propionamidopropoxy)benzamide] | 647 | 1620 | 12.354 |
| CS(=O)(=O)NCCCOc1ccc(Cl)cc1C(=O)NC1N=C(c2c(Cl)cc(Cl)cc2Cl)c2ccccc2NC1=O (stereo not drawn) [Example 27, 5-Chloro-2-(3-(methylsulfonamido)propoxy)-N-(2-oxo-5-(2,4,6-trichlorophenyl)-2,3-dihydro-1H-benzo[e][1,4]diazepin-3-yl)benzamide] | 824 | 1910 | 13.62 |
| CCS(=O)(=O)NCCCOc1ccc(Cl)cc1C(=O)NC1N=C(c2c(Cl)cc(Cl)cc2Cl)c2ccccc2NC1=O (stereo not drawn) [Example 28, 5-chloro-2-(3-(ethylsulfonamido)propoxy)-N-(2-oxo-5-(2,4,6-trichlorophenyl)-2,3-dihydro-1H-benzo[e][1,4]diazepin-3-yl)benzamide] | 850 | 2130 | 8.004 |
| CS(=O)(=O)CCOc1ccc(Cl)cc1C(=O)NC1N=C(c2c(Cl)cc(Cl)cc2Cl)c2ccccc2NC1=O (stereo not drawn) [Example 29, 5-Chloro-2-(2-(methylsulfonyl)ethoxy)-N-(2-oxo-5-(2,4,6-trichlorophenyl)-2,3-dihydro-1H-benzo[e][1,4]diazepin-3-yl)benzamide] | 747 | 2770 | 15.249 |
